Laboratory results taken from US5006548A, “Acrylamidobenzoic acid derivatives and their use” (Sawai Pharmaceutical Co., Ltd., priority 1984, dated 1991).

Columns and labels:
hyaluronidase = target: T1, hyaluronidase (Bos taurus, UniProt Q2YDK3); test: Antihyaluronidase activity (modified Morgan-Elson method, activated by Compound 48/80 or CaCl2); type: biochemical; conditions: hyaluronidase 340 NF unit/ml, 37° C.
T1 sequence (Q2YDK3 36-553): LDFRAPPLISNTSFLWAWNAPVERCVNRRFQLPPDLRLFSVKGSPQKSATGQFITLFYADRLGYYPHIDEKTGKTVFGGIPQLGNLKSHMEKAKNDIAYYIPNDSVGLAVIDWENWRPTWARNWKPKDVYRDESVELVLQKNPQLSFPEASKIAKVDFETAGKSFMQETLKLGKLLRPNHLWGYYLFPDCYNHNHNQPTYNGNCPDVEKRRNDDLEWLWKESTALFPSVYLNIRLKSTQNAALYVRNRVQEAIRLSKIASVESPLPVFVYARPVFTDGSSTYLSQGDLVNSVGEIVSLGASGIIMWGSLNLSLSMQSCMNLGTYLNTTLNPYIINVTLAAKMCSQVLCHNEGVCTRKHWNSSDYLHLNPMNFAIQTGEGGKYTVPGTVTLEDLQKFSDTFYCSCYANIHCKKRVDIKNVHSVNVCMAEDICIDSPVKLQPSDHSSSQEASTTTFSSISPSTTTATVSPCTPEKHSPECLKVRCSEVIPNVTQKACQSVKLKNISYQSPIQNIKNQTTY
Text: In view of the fact that antiallergic agents such as sodium cromoglicate (DSCG), tranilast, etc. inhibit the hyaluronidase activity and that compounds which release histamine from the mast cells such as the […] and polymixin B activate the hyaluronidase, it is considered that the hyaluronidase inhibiting activity can be taken as an index for the antiallergic action. [ct. The 5th Medicinal Chemistry Symposium (Dec. 9 and 10, 1983; Kyoto) Synopsis of Lectures, page 68]. On the basis of such knowledge, the compounds according to the invention were tested for anti-hyaluronidase activity and found to have the excellent activities.
A buffer solution of hyaluronidase (0.1 ml) was taken in a test tube and buffer solutions of various compounds in various concentrations (0.2 ml each) were added. The mixture was incubated at 37° C. for 20 minutes. Then, a buffer solution of activating agent (Compound 48/80 or CaCl2) (0.2 ml) was added up to the total volume of 0.5 ml, and the mixture was incubated at 37° C. for 20 minutes. To this solution, potassium hyaluronate buffer solution (0.5 ml) was added and the mixture was incubated at 37° C. for 40 minutes. After cooling, the solution was neutralized with 0.4N aqueous solution of sodium hydroxide (0.2 ml) to stop the reaction. On the resulting solution, OD585 was determined by modified Morgan-Elson method. A buffer solution or water (0.2 ml) was used as a control in place of the solution of the compounds in the same operation including OD585 measurement. (Final concentration of hyaluronidase was 340 NF unit/ml.)

peritoneal mast cell = test: Inhibition of histamine release from mast cell in abdominal cavity of rats by antigen-antibody reaction; type: cell-based, rat; conditions: for effect on natural release of histamine (in words) / activity at 1000 µM: 10^-3 M; for activity at 1000 µM / activity at 100 µM / activity at 10 µM / activity at 1 µM: Rattus norvegicus, Mast cell, 20 min, DNP-Ascaris 20 microgramms/ml, read-out: Amount of histamine released from peritoneal mast cell (Control=100); for activity at 100 µM: 10^-4 M; for activity at 10 µM: 10^-5 M; for activity at 1 µM: 10^-6 M; for inhibitory activity compared with tranilast (in words): range of 10^-6 M to 10^-3 M
Description: Examination was made on the activity of inhibition of histamine release from mast cell by antigen-antibody reaction.
Swine ascaris extract solution was dinitrophenylated according to Aisen's method, dialysed, and lyophilized. The product was administered as antigen together with Bordetella Pertussis vaccine subcutaneously into the foot pad of rat. Eight days later, blood was taken in order to obtain antiserum. The PCA titer for this antiserum in rat was 32 to 64.
Heparin-containing PBS was injected intraperitoneally to rat which was sacrificed by exsanguination, after which the abdomen was well massaged. Then the injected PBS was collected and purified by washing several times by centrifugation. The number of the mast cells contained in the solution was determined and adjusted to the designed concentration. As to method of sensitizing the cell, the above cell suspension (6 ml, 2×10^6 cells/ml) was treated with anti-DNP-Ascaris rat serum (PCA titer 32) (6 ml) and the mixture was incubated in the presence of heparin at 37° C. for 2 hours.
To the sensitized mast cell suspension, the solution of the compound to be tested was added, and the mixture was preliminarily incubated at 37° C. for 12 minutes. After addition of the solution of antigen DNP-Ascaris (final concentration: 20 microgramms/ml), the mixture was further incubated for 20 minutes. After completion of the reaction, the solution was centrifuged (500 G, 10 min.) at a low temperature to obtain a supernatant solution. Histamine contained in the supernatant solution was determined by fluorometry using orthophthalaldehyde method.

[1] = test system: passive cutaneous anaphylaxis; test: Anti-passive cutaneous anaphylaxis (PCA) activity in rats; type: in vivo, Wistar strain rats; conditions: for Average Inhibition Rate (%), Antiserum Dilution: × 16 / Average Inhibition Rate (%), Antiserum Dilution: × 32: 100 mg/kg PO, rats; for anti-PCA activity (in words): rat, in vivo
Description: Wistar strain rats were sensitized with ovalbumin using aluminium hydroxide gel and Bordetella Pertussis vaccine as adjuvants. Dilutions of antiserum (16-fold and 32-fold) obtained by collecting blood samples 14 days later were administered subcutaneously in the dorsal skin of the rats of the same strain at the rate of 0.1 ml per spot, and the rats were grown for 48 hours. One hour after peroral administration of the sample solution, a mixture of antigen ovalbumin and Evans-blue dye was administered to the tail venous of the animal according to the ordinary procedure. Thirty minutes later, the animals were sacrificed by exsanguination, and the areas of blue spots (long diameter×short diameter) eliciting on the portion of the antiserum injection at the dorsal skin were measured to obtain the rate of inhibition based on the average value shown by the control animals.

SRS-A = test: Anti-SRS-A action: ileum contraction induced by crude SRS-A solution; design: species or system guinea pig
Description: A piece of lung of guinea pig sensitized with ovalbumin was incubated with antigen ovalbumin at 37° C. for 20 minutes and supernatant was separated in order to use as a crude SRS-A solution.
A piece of ileum of a normal guinea pig was suspended in Tyrode's solution in a Magnus tube and incubated with a solution of the compound to be tested for a predetermined duration. The contraction of the piece of ileum induced by adding the above crude SRS-A solution was compared with that attributed to 10^-6 M histamine dihydrochloride (which was taken as 100). The anti-SRS-A action was shown in terms of the rate of inhibition to the contraction.

[2] = test system: ileum of guinea pig active-sensitized with ovalbumin; test: Anti-Schultz-Dale action: ovalbumin-induced contraction of sensitized ileum; conditions: 10^-3 M
Description: A piece of ileum of guinea pig active-sensitized with ovalbumin with Freund complete adjuvant was suspended in Tyrode's solution in a Magnus tube and incubated with a solution of the compound to be tested for a predetermined duration. The contraction of the piece of ileum induced by applying the ovalubumin was compared with that attributed to 10^-6 M histamine dihydrochloride. The anti-Schultz-Dale action was shown in terms of the rate of inhibition to the contraction.

Acute toxicity = conditions: mouse, in vivo, mice, one week
Description: As test animals, ddy-strain mice (male) were used. According to the conventional procedure, suspension or solution of test compound was administered to the animals. From the number of the dead animals up to one week after the administration, LD50 values were obtained by Provit method.

Row | IC50 (hyaluronidase) [µM] | Structure (SMILES) | inhibition of histamine release from mast cell (in words) (peritoneal mast cell) | effect on natural release of histamine (in words) (peritoneal mast cell) | activity at 1000 µM (peritoneal mast cell) [%] | activity at 100 µM (peritoneal mast cell) [%] | activity at 10 µM (peritoneal mast cell) [%] | activity at 1 µM (peritoneal mast cell) [%] | inhibitory activity compared with tranilast (in words) (peritoneal mast cell) | Average Inhibition Rate (%), Antiserum Dilution: × 16 [1] [%] | Average Inhibition Rate (%), Antiserum Dilution: × 32 [1] [%] | anti-SRS-A action (in words) (SRS-A) | inhibition of SRS-A induced contraction (SRS-A; 10^-3 M) [%] | inhibition of SRS-A induced contraction (SRS-A; 10^-4 M) [%] | anti-Schultz-Dale action (in words) [2] | inhibition of contraction (anti-Schultz-Dale) [2] [%] | LD50 at 168 h (Acute toxicity; Intravenous) [mg/kg] | LD50 at 168 h (Acute toxicity; PO) [mg/kg] | anti-PCA activity (in words) [1]
1 | 160 | O=C(C=Cc1ccco1)Nc1ccccc1C(=O)O [Compound 3, 2-[3-(2-furyl)acrylamido]benzoic acid] | strong inhibition from 10^-4 M | – | 0 | 36 | 85 | 95 | stronger inhibitory activity than the control tranilast | – | – | – | – | – | – | – | – | – | showed the anti-PCA activity
2 | 258 | O=C(C=Cc1ccco1)Nc1cc(Cl)ccc1C(=O)O [Compound 4] | – | – | – | – | – | – | – | – | – | – | – | – | – | – | – | – | –
3 | 300 | O=C(C=Cc1ccco1)Nc1cc([N+](=O)[O-])ccc1C(=O)O [Compound 5] | – | – | – | – | – | – | – | – | – | – | – | – | – | – | – | – | –
4 | 120 | Cn1cccc1C=CC(=O)Nc1ccccc1C(=O)O [Compound 6] | – | – | – | – | – | – | – | – | – | – | – | – | – | – | – | – | –
5 | – | COc1ccc(/C=C/C(=O)Nc2ccccc2C(=O)O)cc1OC [Tranilast, reference compound] | – | – | 29 | 67 | 95 | 95 | – | – | – | no action | – | – | no action | – | – | – | –

Row | Structure (SMILES) | IC50 (hyaluronidase) [µM] | inhibition of histamine release from mast cell (in words) (peritoneal mast cell) | effect on natural release of histamine (in words) (peritoneal mast cell) | activity at 1000 µM (peritoneal mast cell) [%] | activity at 100 µM (peritoneal mast cell) [%] | activity at 10 µM (peritoneal mast cell) [%] | activity at 1 µM (peritoneal mast cell) [%] | inhibitory activity compared with tranilast (in words) (peritoneal mast cell) | Average Inhibition Rate (%), Antiserum Dilution: × 16 [1] [%] | Average Inhibition Rate (%), Antiserum Dilution: × 32 [1] [%] | anti-SRS-A action (in words) (SRS-A) | inhibition of SRS-A induced contraction (SRS-A; 10^-3 M) [%] | inhibition of SRS-A induced contraction (SRS-A; 10^-4 M) [%] | anti-Schultz-Dale action (in words) [2] | inhibition of contraction (anti-Schultz-Dale) [2] [%] | LD50 at 168 h (Acute toxicity; Intravenous) [mg/kg] | LD50 at 168 h (Acute toxicity; PO) [mg/kg] | anti-PCA activity (in words) [1]
6 | O=C(C=Cc1ccsc1)Nc1ccccc1C(=O)O [Compound 1, 2-[3-(3-thienyl)acrylamido]benzoic acid] | 86 | action of inhibiting release of histamine from the mast cell even at the low concentration of 10^-6 M | inhibited natural release of histamine | -88 | 11 | 36 | 31 | stronger inhibitory activity than the control tranilast | 31.6 | 41.8 | mild anti-SRS-A action | 23.9 | 14.8 | strong anti-Schultz-Dale action | 83.5 | 438 | 615 | –
7 | O=C(C=Cc1cccs1)Nc1ccccc1C(=O)O [Compound 2, 2-[3-(2-thienyl)acrylamido]benzoic acid] | 140 | action of inhibiting release of histamine from the mast cell even at the low concentration of 10^-6 M | inhibited natural release of histamine | -130 | -70 | 24 | 11 | stronger inhibitory activity than the control tranilast | 26.7 | 21.2 | mild anti-SRS-A action | 11.0 | – | strong anti-Schultz-Dale action | 100 | 277 | 400 | showed the anti-PCA activity
